According to patent publication US11214803B2, “Modulators of YAP1 expression” (Ionis Pharmaceuticals, Inc., priority 2019, dated 2022):
Strand notation (5' to 3'): a small letter for the sugar, then the base; units joined by * are phosphorothioate-linked, units joined directly phosphodiester-linked; [ ] holds rarer units or linkages, { } end groups; capitals alone tell only the bases. k = constrained ethyl (cEt); [5mC] = 5-methylcytosine; d = 2'-deoxy (DNA)

These substances were tested on Yap1 mRNA (assay: Antisense inhibition of human Yap1 in A-431 cells by cEt gapmers, single dose (Example 3, RTS36584)). Settings: Table 8; A-431 cells, 5,000 cells per well, free uptake, 2,000 nM, approximately 48 hours; RTS36584; normalized to RIBOGREEN; Yap1 mRNA relative to untreated control cells.
Format: cell-based
Outline: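 Single-dose free-uptake screen of 3-10-3 cEt gapmers in A-431 cells at 2,000 nM over about 48 h. Values are % untreated control Yap1 mRNA.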

Substance | YAP1 (% UTC)
958352 (k[5mC]*kG*kG*dT*d[5mC]*dT*d[5mC]*d[5mC]*dG*dA*dG*dT*d[5mC]*k[5mC]*k[5mC]*k[5mC]; antisense) [Compound 958352] | 110 % UTC
958380 (antisense k[5mC]*kG*k[5mC]*dG*d[5mC]*d[5mC]*d[5mC]*dG*d[5mC]*d[5mC]*d[5mC]*dG*d[5mC]*kA*k[5mC]*k[5mC]) [Compound 958380] | 106 % UTC

Same assay, conditions: Table 9; A-431 cells, 5,000 cells per well, free uptake, 2,000 nM, approximately 48 hours; RTS36584; normalized to RIBOGREEN; Yap1 mRNA relative to untreated control cells

Substance | YAP1 (% UTC)
958611 (antisense kG*kA*kG*d[5mC]*dA*dT*dG*d[5mC]*dT*d[5mC]*dT*dT*dA*k[5mC]*kA*kT) [Compound 958611] | 92 % UTC
958531 (kG*kT*kA*dG*dG*dA*dG*d[5mC]*dA*dA*dG*dT*d[5mC]*kT*kT*kG; antisense) [Compound 958531] | 5 % UTC
958501 (kT*kG*k[5mC]*d[5mC]*dT*dA*dG*dG*dT*dT*d[5mC]*d[5mC]*dG*kA*k[5mC]*kA; antisense) [Compound 958501] | 41 % UTC

Same assay, conditions: Table 10; A-431 cells, 5,000 cells per well, free uptake, 2,000 nM oligonucleotide, approx. 48 hours; primer probe set RTS36584; Yap1 mRNA normalized to RIBOGREEN, percent of untreated control

Substance | YAP1 (% UTC)
958707 (antisense kT*k[5mC]*kA*dA*dT*dG*d[5mC]*dT*dG*dT*dA*dT*d[5mC]*kA*kG*kA) [Compound 958707] | 23 % UTC
958452 (antisense k[5mC]*kT*k[5mC]*d[5mC]*dA*dG*dG*dT*d[5mC]*dG*dG*dT*d[5mC]*kT*k[5mC]*k[5mC]) [Compound 958452] | 26 % UTC
958772 (antisense k[5mC]*kA*kA*d[5mC]*dA*dA*dA*d[5mC]*dA*dT*dA*dG*dT*kT*kA*k[5mC]) [Compound 958772] | 61 % UTC
958632 (antisense k[5mC]*kT*k[5mC]*d[5mC]*dG*dA*d[5mC]*dA*dG*dG*dA*dG*dA*k[5mC]*kT*kA) [Compound 958632] | 55 % UTC
958612 (antisense kA*k[5mC]*k[5mC]*dT*dA*dA*d[5mC]*dA*dT*dA*dT*dG*dA*kG*k[5mC]*kA) [Compound 958612] | 18 % UTC
958752 (antisense kG*kA*kA*dT*dT*dT*dT*dT*dA*dG*dT*d[5mC]*d[5mC]*kA*kG*kT) [Compound 958752] | 2 % UTC

Same assay, conditions: Table 11; A-431 cells, 5,000 cells per well, free uptake, 2,000 nM oligonucleotide, approx. 48 hours; primer probe set RTS36584; Yap1 mRNA normalized to RIBOGREEN, percent of untreated control

Substance | YAP1 (% UTC)
958708 (antisense kA*kT*kG*dT*d[5mC]*dA*dG*dA*dT*dG*dT*d[5mC]*dA*kA*kT*kT) [Compound 958708] | 19 % UTC
958513 (kG*k[5mC]*kG*d[5mC]*dT*dA*d[5mC]*d[5mC]*dA*dT*dT*dT*dT*kA*kA*kA; antisense) [Compound 958513] | 104 % UTC
958748 (antisense kA*k[5mC]*kA*dT*dG*dT*dG*dA*d[5mC]*dA*dT*dT*d[5mC]*k[5mC]*kG*kG) [Compound 958748] | 83 % UTC
958758 (antisense k[5mC]*kT*kA*dT*dT*d[5mC]*dA*dG*dT*dG*dA*dT*d[5mC]*kT*kG*k[5mC]) [Compound 958758] | 2 % UTC
958578 (k[5mC]*kT*kT*dA*dA*dT*d[5mC]*dT*dG*dT*dG*dG*d[5mC]*kT*kA*k[5mC]; antisense) [Compound 958578] | 4 % UTC

Same assay, conditions: Table 12; A-431 cells, 5,000 cells per well, free uptake, 2,000 nM modified oligonucleotide, approx. 48 hours; RTS36584; normalized to RIBOGREEN; Yap1 mRNA relative to untreated control cells

Substance | YAP1 (% UTC)
958704 (antisense k[5mC]*k[5mC]*k[5mC]*dT*dA*d[5mC]*dA*d[5mC]*dT*d[5mC]*dG*dA*dG*kG*kA*kT) [Compound 958704] | 122 % UTC
958584 (k[5mC]*k[5mC]*k[5mC]*dT*dA*dA*dG*d[5mC]*dT*dA*dA*dA*dG*k[5mC]*kT*kA; antisense) [Compound 958584] | 74 % UTC
958589 (kG*kT*kA*dA*dA*dG*dG*dA*dA*dG*dA*dT*d[5mC]*kT*k[5mC]*k[5mC]; antisense) [Compound 958589] | 4 % UTC
958609 (antisense kT*kG*kA*d[5mC]*dA*dA*dG*dT*dG*dT*dG*d[5mC]*dA*kT*kT*kA) [Compound 958609] | 16 % UTC

Same assay, conditions: Table 13; A-431 cells, 5,000 cells per well, free uptake, 2,000 nM modified oligonucleotide, approx. 48 hours; RTS36584; normalized to RIBOGREEN; Yap1 mRNA relative to untreated control cells

Substance | YAP1 (% UTC)
958665 (k[5mC]*kT*kG*d[5mC]*dA*dT*dA*d[5mC]*d[5mC]*d[5mC]*dT*d[5mC]*d[5mC]*kA*kG*k[5mC]; antisense) [Compound 958665] | 84 % UTC
958450 (antisense kG*kG*kT*d[5mC]*dG*d[5mC]*d[5mC]*dG*d[5mC]*dG*dG*dG*dT*kG*k[5mC]*k[5mC]) [Compound 958450] | 59 % UTC

Same assay, conditions: Table 26; Yap1 mRNA by 3-10-3 cEt gapmers targeting SEQ ID NO.: 1, and 2; percent of untreated control

Substance | YAP1 (% UTC)
1074636 (antisense kA*kT*k[5mC]*dT*dA*dT*d[5mC]*dT*dT*d[5mC]*d[5mC]*d[5mC]*dA*kA*kG*k[5mC]) [compound 1074636] | 56 % UTC
1076428 (kA*kT*kT*dA*dA*dA*dA*dA*dG*dA*dA*dG*d[5mC]*kA*k[5mC]*kG; antisense) [compound 1076428] | 53 % UTC
1074828 (kA*kT*kA*dA*dA*dA*dT*d[5mC]*d[5mC]*dA*d[5mC]*d[5mC]*dT*kG*kA*kG; antisense) [compound 1074828] | 58 % UTC

Same assay, conditions: Table 27; Yap1 mRNA by 3-10-3 cEt gapmers targeting SEQ ID NO.: 1, and 2; percent of untreated control

Substance | YAP1 (% UTC)
1075373 (antisense kT*kA*kT*dA*dT*dA*dT*dA*dG*dA*d[5mC]*dT*dT*kG*kA*kG) [compound 1075373] | 13 % UTC
1075469 (antisense kT*kG*kA*dT*dA*dT*dA*dA*dT*dG*dA*d[5mC]*d[5mC]*kA*kA*kG) [compound 1075469] | 25 % UTC
1075917 (antisense kA*kG*k[5mC]*dA*dA*dA*dA*dA*dG*dT*dG*dA*dT*kA*kT*kG) [compound 1075917] | 55 % UTC
1075885 (antisense k[5mC]*kA*kT*dT*dA*dG*dT*dA*dA*dT*dG*dA*d[5mC]*kT*kA*kA) [compound 1075885] | 112 % UTC
1074701 (antisense kG*kT*kG*dT*dA*dA*dG*dA*d[5mC]*dA*dA*dG*dT*k[5mC]*kT*kT) [compound 1074701] | 17 % UTC

Same assay, conditions: Table 28; Yap1 mRNA as percent of untreated control; 3-10-3 cEt gapmers targeting SEQ ID NO.: 1, and 2

Substance | YAP1 (% UTC)
1074382 (kA*kG*kG*dT*dA*dG*dT*d[5mC]*dT*dG*dG*dG*dA*kA*kA*k[5mC]; antisense) [compound 1074382] | 8 % UTC
1074286 (antisense kT*kG*kA*dT*dT*d[5mC]*dT*d[5mC]*dT*dG*dG*dT*dT*k[5mC]*kA*kT) [compound 1074286] | 32 % UTC
1076142 (kA*kT*kA*d[5mC]*dG*dA*dA*dA*dA*dA*dA*dG*d[5mC]*k[5mC]*kA*kA; antisense) [compound 1076142] | 38 % UTC

Same assay, conditions: Table 29; Yap1 mRNA as percent of untreated control; 3-10-3 cEt gapmers targeting SEQ ID NO.: 1, and 2

Substance | YAP1 (% UTC)
1074959 (antisense kT*kT*kA*dA*d[5mC]*d[5mC]*d[5mC]*dG*dG*dG*dT*dT*dT*kT*kT*kG) [compound 1074959] | 128 % UTC

Same assay, conditions: Table 34; Yap1 mRNA as percent of untreated control; 3-10-3 cEt gapmers targeting SEQ ID NO: 1 and 2; single dose

Substance | YAP1 (% UTC)
1074772 (kA*kG*kT*dT*dA*dA*dA*dA*dT*d[5mC]*dT*dT*dA*kT*k[5mC]*k[5mC]; antisense) [compound 1074772] | 80 % UTC
1074196 (antisense kG*k[5mC]*k[5mC]*d[5mC]*dG*dG*dG*dT*d[5mC]*d[5mC]*dG*dG*dA*k[5mC]*kG*kG) [compound 1074196] | 99 % UTC
1074644 (antisense kA*kT*kT*dG*dA*dA*dG*dG*dG*d[5mC]*d[5mC]*dA*dA*kA*kA*kT) [compound 1074644] | 93 % UTC
1075860 (antisense kA*kA*k[5mC]*dT*dA*dT*dA*dA*dG*d[5mC]*dT*dA*dT*kG*kT*kG) [compound 1075860] | 73 % UTC

Same assay, conditions: Table 35; Yap1 mRNA as percent of untreated control; 3-10-3 cEt gapmers targeting SEQ ID NO: 1 and 2; single dose

Substance | YAP1 (% UTC)
1076309 (kG*kA*kT*dA*dA*d[5mC]*dT*dT*dT*d[5mC]*d[5mC]*dA*d[5mC]*kA*kA*kT; antisense) [compound 1076309] | 9 % UTC
1075509 (k[5mC]*kA*kT*dA*dA*dT*d[5mC]*d[5mC]*d[5mC]*dT*dG*dA*d[5mC]*kT*kT*kG; antisense) [compound 1075509] | 81 % UTC
1074933 (antisense kA*kG*kG*dA*dG*dA*d[5mC]*dT*dA*dT*dA*d[5mC]*dA*kA*k[5mC]*kA) [compound 1074933] | 72 % UTC
1075157 (k[5mC]*k[5mC]*kA*dG*dA*dA*dA*dA*dT*d[5mC]*dA*dT*dA*kG*kT*kA; antisense) [compound 1075157] | 19 % UTC
1076277 (kG*k[5mC]*kT*dA*dA*dA*dA*d[5mC]*dA*dT*d[5mC]*dA*dG*kA*kT*kA; antisense) [compound 1076277] | 24 % UTC
1075605 (antisense k[5mC]*kG*kT*dA*dA*dA*d[5mC]*dA*dT*dT*dT*dT*dG*k[5mC]*k[5mC]*kT) [compound 1075605] | 38 % UTC
1074901 (antisense kT*kA*kT*dT*dA*dA*d[5mC]*dT*dT*dT*dT*dG*dG*kG*k[5mC]*kA) [compound 1074901] | 61 % UTC
1074581 (DNA kA*kA*k[5mC]*d[5mC]*dA*d[5mC]*dT*dA*dT*dA*dA*dA*dG*k[5mC]*kT*kT; antisense) [compound 1074581] | 18 % UTC
